Where “and” joins values, the source holds several entries; their conditions need not be identical. Equal entries are not always repeated.
System: PDC 521955-158-R6-J3 spheroids, viability
Test: Anticancer human tumor 521955-158-R6-J3-PDC patient-derived pancreatic carcinoma cell line growth inhibition [TAK]
Conditions: spheroids with HUVEC and MSC; for viability, T/C: stronger effect = lower value; active means viability on the fitted dose curve at most 10% of control; inactive means the rest
Procedure, shortened: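 Tumor cells were grown as spheroids with HUVEC and hMSC (60:25:15) and treated with targeted agents combined with TAK-243 or ipatasertib. Drugs were tested in half-log steps down from near the clinical Cmax, or from 10 microM where Cmax was unknown.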
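Further: spheroids exposed to drugs for 7 days before readout.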
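Wherever viability, T/C is given: 100% = DMSO vehicle control viability.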

Cn1cnc2c(F)c(Nc3ccc(Br)cc3Cl)c(C(=O)NOCCO)cc21 + CC(C)NCC(C(=O)N1CCN(c2ncnc3c2C(C)CC3O)CC1)c1ccc(Cl)cc1
186 nM: IC50 (curve of first compound, second compound 30 µM)
141 nM: IC50 (curve of first compound, second compound 9.49 µM)
176 nM: IC50 (curve of first compound, second compound 0.949 µM)
324 nM: IC50 (curve of first compound, second compound 3 µM)
326 nM: IC50 (curve of first compound, second compound 0.3 µM)
inactive: viability, T/C (second compound 0.3 µM, first compound 0.00949 µM) 66.8% | viability, T/C (second compound 0.3 µM, first compound 0.03 µM) 60.1% | viability, T/C (second compound 0.3 µM, first compound 0.0949 µM) 54.6% | viability, T/C (second compound 0.3 µM, first compound 0.3 µM) 47.5% | viability, T/C (second compound 0.3 µM, first compound 0.949 µM) 51.8% | viability, T/C (second compound 0.3 µM, first compound 3 µM) 38.9% | viability, T/C (second compound 0.949 µM, first compound 0.00949 µM) 69.6% | viability, T/C (second compound 0.949 µM, first compound 0.03 µM) 58.4% | viability, T/C (second compound 0.949 µM, first compound 0.0949 µM) 48.3% | viability, T/C (second compound 0.949 µM, first compound 0.3 µM) 49.7% | viability, T/C (second compound 0.949 µM, first compound 0.949 µM) 43.8% | viability, T/C (second compound 0.949 µM, first compound 3 µM) 25.7% | viability, T/C (second compound 3 µM, first compound 0.00949 µM) 68.2% | viability, T/C (second compound 3 µM, first compound 0.03 µM) 60.9% | viability, T/C (second compound 3 µM, first compound 0.0949 µM) 52.4% | viability, T/C (second compound 3 µM, first compound 0.3 µM) 51.8% | viability, T/C (second compound 3 µM, first compound 0.949 µM) 43% | viability, T/C (second compound 3 µM, first compound 3 µM) 21.6% | viability, T/C (second compound 9.49 µM, first compound 0.00949 µM) 66.8% | viability, T/C (second compound 9.49 µM, first compound 0.03 µM) 55.7% | viability, T/C (second compound 9.49 µM, first compound 0.0949 µM) 47.8% | viability, T/C (second compound 9.49 µM, first compound 0.3 µM) 49.5% | viability, T/C (second compound 9.49 µM, first compound 0.949 µM) 33.9% | viability, T/C (second compound 9.49 µM, first compound 3 µM) 15.8% | viability, T/C (second compound 30 µM, first compound 0.00949 µM) 64.3% | viability, T/C (second compound 30 µM, first compound 0.03 µM) 56.7% | viability, T/C (second compound 30 µM, first compound 0.0949 µM) 49.6% | viability, T/C (second compound 30 µM, first compound 0.3 µM) 50.1% | viability, T/C (second compound 30 µM, first compound 0.949 µM) 35.8% | viability, T/C (second compound 30 µM, first compound 3 µM) 15.1%

CC(C)CC(NC(=O)CNC(=O)c1cc(Cl)ccc1Cl)B1OC(=O)CC(CC(=O)O)(C(=O)O)O1 (configuration not stated)
49.8 nM and 46.2 nM: IC50 (curve of compound)
10.2% and 9.97%: viability, T/C (compound 0.1 µM)
inactive: viability, T/C (compound 0.000316 µM) 105% and 101% | viability, T/C (compound 0.001 µM) 101% and 102% | viability, T/C (compound 0.00316 µM) 110% and 100% | viability, T/C (compound 0.01 µM) 114% and 107% | viability, T/C (compound 0.0316 µM) 75.9% and 69.7%

Reference: PubChem BioAssay AID2060350 (Molecular Pharmacology Branch, DTP, NCI, 2025)
